Publication PMC8022858, “Discovery of bone morphogenetic protein 7-derived peptide sequences that attenuate the human osteoarthritic chondrocyte phenotype” (Molecular Therapy. Methods & Clinical Development, 2021)

Key:
[1] = system: OA-HAC pool; assay: Alanine scanning of peptide p[63-82], gene expression and bioactivity score; assay type: cell-based, human; settings: pool of 18 OA-HACs, 100 nM; for impact of alanine substitution on peptide p[63-82] bioactivity (bioactivity score): 24 h, score = sum of fold change of COL10A1, ALPL, MMP13, COL2A1, NKX3-2 versus wild-type (Figure 5C)
Method: Figure 5 Molecular characterization of peptides p[63−82] and p[113−132] (A) A pool of OA-HACs (n = 4 donors) was transfected with a scrambled siRNA or with an NKX3-2 siRNA (100 nM siRNA) and cultured for 24 h. Cultures were then exposed to peptide p[63−82] or p[113−132] (100 nM peptide). Samples were harvested 24 h later and analyzed for the expression of the indicated mRNAs (normalized to 28S rRNA). (B) SW1353 chondrocytic cells were transfected with BRE (SMAD1/5/8 reporter) or CAGA12 (SMAD2/3 reporter) firefly luciferase-reporter plasmids. A CMV-Gaussia plasmid was cotransfected as a transfection control. Cells were then cultured for 24 h and subsequently exposed to control, p[63−82], or p[113−132] for 8 h. Firefly and Gaussia bioluminescence were measured in cells and medium (respectively), and relative light units (RLUs) of firefly luciferase were normalized for the Gaussia luciferase signal. The normalized firefly luciferase signal of the control condition was set at 1, and peptide conditions were calculated relative to the control condition (FL/GL). Error bars represent mean ± SEM; statistical significance for peptide conditions versus siScrambled or siNKX3-2 (A) or control condition (B) as determined by unpaired two-tailed Student’s t test is represented as ∗p < 0.05, ∗∗p < 0.01, and ∗∗∗p < 0.001. (C) An alanine scanning library of peptide p[63−82] was synthesized, and the pool of 18 OA-HACs originally used for the full library scanning (Figure 1) was exposed to individual peptides from the alanine scanning library (100 nM peptide) for 24 h. An alanine-scanning bioactivity score (sum of the fold change gene expression of COL10A1, ALPL, MMP13, and COL2A1 plus NKX3-2 of the alanine-substituted peptides versus the wild-type p[63−82] peptide) was calculated for each alanine substitution in the amino acid sequence of peptide p[63−82] and is represented by the height of each letter on the y axis (data in Figure S4). (D) Multiple sequence alignment of the human BMP7 p[63−82] peptide with the homologous region in BMP7 of other species.
We aimed to further understand the sequence dependency of the peptide bioactivity. Peptide p[63−82] was derived from the central region within BMP7, and since this yielded a limited series of bioactive peptides (Figures 1B and S2), we further focused our analyses on peptide p[63−82]. To determine which amino acids are important for the bioactivity of peptide p[63−82], an alanine-scanning peptide library was synthesized, based on systematic alanine substitution of consecutive amino acids in the peptide p[63−82] sequence (Table S1). This alanine-scanning library was then screened by exposing an OA-HAC pool (the same pool that was used for the full library scanning in Figure 1) for 24 h to 100 nM of each peptide in the alanine-scanning library. The bioactivity of each peptide was determined by measuring gene expression of COL10A1, ALPL, MMP13, COL2A1, and NKX3-2 (Figure S4). Changes in the bioactivity of the alanine-scanning library peptides were combined into a “bioactivity score” of each individual substituted amino acid in the parental p[63−82] peptide (Figure 5C). […] The region in BMP7 from which peptide p[63−82] was derived and the G7 position in it are evolutionary highly conserved, as determined by sequence alignment of BMP7 sequences from various animal species (Figure 5D).
For the peptide-screening and alanine-scanning experiments, cDNA was prepared using the Cells-to-Ct kit (Invitrogen) according to the manufacturer’s protocol. For the other experiments, cells or homogenized tissues (Mikro-Dismembrator; Braun Biotech International) were lysed in TRIzol (Life Technologies) and RNA isolation and cDNA synthesis were performed as described earlier.[27]^,[57] Quantitative real-time PCR was performed using Takyon qPCR Master Mix plus blue for SYBR Green (Eurogentec). […]

[2] = system: primary human OA articular chondrocytes (OA-HACs); assay: BMP7 peptide library screening, quantitative real-time PCR of OA chondrocyte phenotype genes; assay type: cell-based; settings: pool of 18 OA-HAC donors, scrambled peptides 100 nM, 24 h (Figure 2G)
Description: To investigate whether BMP7 harbors potential peptide sequences that improve the OA chondrocyte phenotype, a peptide library was designed from the mature 139 amino acid-long human BMP7 sequence (Table S2). The peptide library was designed as 20-mer peptides with 2 amino acid intervals (18 amino acid overlap) between individual peptides and with all cysteine residues substituted by serine residues to avoid uncontrolled oxidation of cysteine groups. This yielded 61 individual peptides covering the complete mature human BMP7 sequence (Figure 1A). The peptide library was screened using a pool of primary human OA articular chondrocytes (OA-HACs) from 18 individual donors. Prior to pooling, individual OA-HAC isolates were tested for their responsiveness to BMP7 (Figure S1). The screening was conducted by exposing the OA-HAC pool for 24 h to a concentration series (1, 10, 100, or 1,000 nM) of each peptide from the library. […] This is defined as reduced expression of collagen type X alpha 1 chain (COL10A1), alkaline phosphatase (ALPL), Runt-related transcription factor 2 (RUNX2), ADAMTS5, MMP13, prostaglandin-endoperoxide synthase 2 or cyclooxygenase-2 (COX-2), and interleukin 6 (IL6) and increased expression of SRY-box transcription factor 9 (SOX9), COL2A1, and NKX3-2. […] Representative peptides inducing the above gene expression characteristics in OA-HACs were selected from both regions for further investigation. These were peptide p[63−82] and p[113−132] from the library, covering amino acids 63−82 and 113−132 of the mature BMP7 amino acid sequence. The complete quantitative real-time PCR data for peptides p[63−82] and p[113−132] […] For the two candidate peptides, we validated data using an independent cohort of three OA-HACs exposed to 100 nM of p[63−82] or p[113−132] or a combination of both peptides. […] Taken together, two regions in BMP7 were identified delivering peptide sequences that are able to improve the OA chondrocyte phenotype.
Figure 1 BMP7 peptide library screening on primary human OA articular chondrocytes (OA-HACs) (A) Schematic representation of the design of the human BMP7 peptide library. (B) COL10A1 mRNA expression in samples from the library screening on a pool of 18 OA-HACs individually exposed for 24 h to the peptides (100 nM) in the library. Data are shown as compared to the control condition (white bar) and full-length BMP7 (1 nM; gray bar). The two blue bars represent candidate peptides p[63−82] and p[113−132]. […] Error bars represent mean ± SEM, and statistical significance for peptide condition or BMP7 versus control condition as determined by unpaired two-tailed Student’s t test is represented as ∗p < 0.05, ∗∗p < 0.01, and ∗∗∗p < 0.001; NS, not significant.
Figure 2 Bioactivity of BMP7-derived peptides p[63−82] and p[113−132] on OA-HACs Complete peptide library screening quantitative real-time PCR dataset for peptides p[63−82] and p[113−132] is presented. (A) SOX9, COL2A1, and NKX3-2 mRNA expression in the 18 OA-HAC pool exposed to 1,000, 100, 10, or 1 nM of peptide p[63−82] and p[113−132] is shown and presented relative to control (black bars) and alongside full-length BMP7 (white bars). (B) Similar to (A) but for chondrocyte hypertrophy-associated genes RUNX2, COL10A1, and ALPL. (C) Similar to (A) but for cartilage extracellular matrix remodeling-associated genes MMP13 and ADAMTS5 and inflammation-related genes COX-2 and IL-6. (D) Glycosaminoglycan (GAG) content (normalized to total protein content) on an independent cohort of three individual OA-HAC donors treated with 100 nM peptides p[63−82] and p[113−132] for 24 h. (E) Alkaline phosphatase (ALP) activity (normalized to total protein content) in similar samples from (D). (F) Prostaglandin E2 (PGE2) levels in culture supernatant in similar samples from (D). […]

| Substance | impact of alanine substitution on peptide p[63-82] bioactivity (bioactivity score) [1] | also measured |
| --- | --- | --- |
| H-AAAYSEGESAFPLNSYMNAT-OH [Y3A, alanine-scanning peptide of p[63−82], substitution position 03] | important impact | – |
| H-AAYYSEAESAFPLNSYMNAT-OH [G7A, alanine-scanning peptide of p[63−82], substitution position 07] | important impact | response on chondrocyte hypertrophy ([1]; 24 h (Figure S4)): reciprocal response; impact on the chondrocyte phenotype-modulating action of the peptide ([1]; 24 h (Figures 5C, S4)): largest impact |
| H-AAYYSEGASAFPLNSYMNAT-OH [E8A, alanine-scanning peptide of p[63−82], substitution position 08] | important impact | – |
| H-AAYYSEGESAAPLNSYMNAT-OH [F11A, alanine-scanning peptide of p[63−82], substitution position 11] | important impact | – |
| H-AAYYSEGESAFPLNSAMNAT-OH [Y16A, alanine-scanning peptide of p[63−82], substitution position 16] | important impact | – |
| H-AAYYSEGESAFPLNSYANAT-OH [M17A, alanine-scanning peptide of p[63−82], substitution position 17] | important impact | – |
| H-VYISNVDDYSNKFLLKVRSM-OH [scrambled p[113−132], scrambled version of peptide p[113−132], reference compound] | – | sequence specificity: expression of COL2A1, RUNX2, COL10A1, and COX-2 [2]: neither one of them was able to recapitulate the bioactivity |
